# Legend:
# human panelists [1] = assay: Paired comparison test, sweet flavor potentiation with sucrose or HFCS as the sweetener; type: in vivo
# Method: (§1) Test samples containing experimental compounds are presented in pairs to the panelist and they are asked to determine which of the sample is sweeter. […] A group of 10-16 or more panelists participated in each test. Subjects refrained from eating or drinking (except water) for at least 1 hour prior to the test. Subjects rinsed with water several times to clean the mouth.
# (§2) Taste tests were performed with sucrose or HFCS as the sweetener in the presence or absence of compound. A 0.2% stock solution of compound in water with sodium bicarbonate was prepared and then this stock solution was diluted in the final sample to achieve the targeted final concentration of compound. For the sample evaluated at pH 2.8 the pH of the solution is decreased to about pH 2.8 using citric acid. Taste samples were also prepared in a low sodium phosphate buffer (pH 7.1; “LSB”) lacking sucrose or HFCS to evaluate the taste of the compound alone. Low sodium phosphate buffer consists of 0.3 mM KCl, 0.5 mM Na2HPO4, and 0.175 mM KH2PO4. Sample volumes are usually 20 ml.
# (§3) In one paired comparison test, the panelist is presented with two different samples and asked to identify the sample which is sweeter. The samples within a paired comparison test are presented in a randomized, counterbalanced order. Panelists have up to a 1 minute delay between taste tests to clear the mouth of any tastes.
# (§4) Binomial probability tables are used to determine the probability of the correct number of responses occurring for each test at alpha=0.05.
# human panelists [2] = assay: Paired comparison test, taste of the compound alone in low sodium phosphate buffer (LSB); type: in vivo
# Method: as §1, §2, §3, §4
# human panelists [3] = assay: Sucrose potentiation in Iced Coffee product prototype, paired comparison test; type: in vivo; conditions: Table 19: Iced Coffee, 8% Sucrose vs 4% Sucrose + 7.6 μM Compound K2; n = 33 (11 panelists × 3 reps)
# Method: All samples were made in an Iced Coffee formulation consisting of Brewed Coffee, 2% milk, Sucrose and water. The samples were prepared using a 0.2% Compound stock made with 0.2% sodium bicarbonate and water. Tests samples are presented in pairs to the panelists and they are asked to determine which of the sample is sweeter.
# as §3, §4
SMILES,melting point [°C],"Sample selected as sweeter by panelists, Total (human panelists [1]; Table 1-a: 12% Sucrose vs 6% Sucrose + 21 μM Compound Q1, pH 7.1, n = 30 (15 panelists × 2 reps))","Sample selected as sweeter by panelists, Total (human panelists [1]; Table 1-b: 12% Sucrose vs 6% Sucrose + 7.9 μM Compound Q1, pH 2.8, n = 42 (14 panelists × 3 reps))","Sample selected as sweeter by panelists, Total (human panelists [1]; Table 4-a: 12% Sucrose vs 6% Sucrose + 12.7 μM Compound J2, pH 7.1, n = 51 (17 panelists × 3 reps))","Sample selected as sweeter by panelists, Total (human panelists [1]; Table 4-b: 12% Sucrose vs 6% Sucrose + 12.7 μM Compound J2, pH 2.8, n = 45 (15 panelists × 3 reps))","Sample selected as sweeter by panelists, Total (human panelists [1]; Table 7-a: 11% Sucrose vs 6% Sucrose + 12.7 μM Compound K2, pH 7.1, n = 36 (12 panelists × 3 reps))","Sample selected as sweeter by panelists, Total (human panelists [1]; Table 7-b: 12% Sucrose vs 6% Sucrose + 7.6 μM Compound K2, pH 2.8, n = 36 (18 panelists × 2 reps))","Sample selected as sweeter by panelists, Total (human panelists [1]; Table 10: 12% Sucrose vs 6% Sucrose + 12.7 μM Compound L2, pH 7.1, n = 42 (14 panelists × 3 reps))","Sample selected as sweeter by panelists, Total (human panelists [1]; Table 13: 12% Sucrose vs 6% Sucrose + 11.9 μM Compound B1, pH 7.1, n = 34 (17 panelists × 2 reps))","Sample selected as sweeter by panelists, Total (human panelists [1]; Table 16: 10% Sucrose vs 6% Sucrose + 9.2 μM Compound F3, pH 7.1, n = 33 (11 panelists × 3 reps))","Sample selected as sweeter by panelists, Total (human panelists [2]; Table 3: 1% Sucrose vs LSB + 26.3 μM Compound Q1, n = 26 (13 panelists × 2 reps))","Sample selected as sweeter by panelists, Total (human panelists [2]; Table 6: 1% Sucrose vs LSB + 20.4 μM Compound J2, n = 26 (13 panelists × 2 reps))","Sample selected as sweeter by panelists, Total (human panelists [2]; Table 9: 1% Sucrose vs LSB + 12.7 μM Compound K2, n = 51 (17 panelists × 2 reps))","Sample selected as sweeter by panelists, Total (human panelists [2]; Table 12: 1% Sucrose vs LSB + 12.7 μM Compound L2, n = 36 (12 panelists × 3 reps))","Sample selected as sweeter by panelists, Total (human panelists [2]; Table 15: 1% Sucrose vs LSB + 11.9 μM Compound B1, n = 45 (15 panelists × 3 reps))","Sample selected as sweeter by panelists, Total (human panelists [2]; Table 18: 1% Sucrose vs LSB + 9.2 μM Compound F3, n = 30 (15 panelists × 2 reps))","Sample selected as sweeter by panelists, Total (human panelists [3])"
"NC1=NS(=O)(=O)Nc2cccc(OC[C@H]3CCCN(C(=O)c4ccncc4)C3)c21 [Example 3, (S)-(3-(((4-amino-2,2-dioxido-1H-benzo[c][1,2,6]thiadiazin-5-yl)oxy)methyl)piperidin-1-yl)(pyridin-4-yl)methanone]",> 250,–,–,–,–,–,–,–,–,–,–,–,–,–,–,–,–
"OC[C@H]1O[C@@](CO)(O[C@H]2O[C@H](CO)[C@@H](O)[C@H](O)[C@H]2O)[C@@H](O)[C@@H]1O [Sucrose, sucrose]",–,18,24,28,20,20,21,19,19,16,14,14,29,19,19,16,16
